# Earlier results, collected in US5866539A, “Method for the control of antibiotic-resistant gram positive bacteria and treatment of infection” (AMBI Inc., priority 1996, dated 1999).
# Where no end group is shown, it is not given here.
# System: staphylococci and enterococci
# Conditions: compared to currently used therapeutic agents
row,Substance,activity towards staphylococci and enterococci
1,Actagardine,only moderate activity
2,"mersacidin (CTFTLPGGGGVCTLTSECIC; also: lantibiotic thioether rings, places not given here; UniProt P43683 49-68, looked up) [more recent lanthionine-containing antimicrobial peptide evaluated in the literature]",only moderate activity
